Data taken from US20250042912A1, “NOVEL NON-FLUORINATED QUINOLONE COMPOUND AND USE THEREOF” (priority 2021, published 2025).
In brackets after ≈: the same amount, converted by molar mass. Structures can show the parent of a compound that is named as a salt.

Columns and labels:
Format in all cases: cell-based
[1] = system: Staphylococcus epidermidis ATCC 35984; assay: Minimum inhibitory concentration (MIC) assay, Staphylococcus epidermidis ATCC 35984; details: ATCC35984, aerobic culture 35+/-2°C, 16 to 20 hours, read with naked eyes
Procedure: (§1) On the day of the experiment, the compound in the flask was dissolved in 100% DMSO until the concentration of mother liquor was 0.4 mg/mL. If the mother liquor was not used on the same day, it was stored at −80° C. for future use.
(§2) The compound mother liquor and standard antibiotics were subjected to 2-fold gradient dilution with corresponding solvents on a 96-microwell plate (V-bottom) to obtain 100× working solutions (Well 1 to Well 7) in sequence. Among them, the concentrations of the compound were 400 μg/mL, 200 μg/mL, 100 μg/mL, 50 μg/mL, 25 μg/mL, 12.5 μg/mL, 6.25 μg/mL, and 3.125 μg/mL. 100% DMSO was used as growth control (Well 8). As such, the compound motherplate was obtained.
(§3) One day before the experiment, aerobic bacteria (Staphylococcus epidermidis) stored in a cryogenic tube at −80° C. were scribed on an MHA (Cation-adjusted Mueller-Hinton agar) plate. The aerobic bacteria were placed in a 35+/−2° C. incubator for 18-24 hours of aerobic cultivation.
(§4) On the day of the experiment, the plate was taken out, clones were picked from the plate and suspended in physiological saline. Then, the turbidity of the bacterial suspension (containing 1.0-2.0×10^8 CFU/mL) was adjusted to OD600=0.2 by a turbidity meter. Then, the adjusted bacterial suspension was diluted to an appropriate concentration with the assay culture medium: about 5×10^5 CFU/mL for aerobic bacteria, and about 1×10^6 CFU/mL for anaerobic bacteria. As such, the inoculating solution was obtained.
(§5) 2 μl of 2-fold series dilution of 100× high-concentration working solution was transferred from a compound mother plate (prepared in step 1) to a round-bottom 96-well plate, and then 198 μL of bacterial inoculating solution (prepared in step 2) was added to each well to obtain an MIC assay plate. Therefore, the final assay concentrations of the compound were 4 μg/mL, 2 μg/mL, 1 μg/mL, 0.5 μg/mL, 0.25 μg/mL, 0.125 μg/mL, 0.06 μg/mL and 0.03 μg/mL. The total volume of each well on the assay plate was 200 μL: containing 1% DMSO, about 5×10^5 CFU/mL of aerobic bacteria and about 1×10^6 CFU/mL of anaerobic bacteria.
(§6) All assay plates for aerobic bacteria were aerobically cultured at 35+/−2° C. for 16 to 20 hours, and all assay plates for anaerobic bacteria were anaerobically cultured in an anaerobic incubator at 35+/−2° C. for 48 hours.

[2] = system: Propionibacterium acnes ATCC 11827; assay: Minimum inhibitory concentration (MIC) assay, Propionibacterium acnes ATCC 11827; details: Cutibacterium acnes, ATCC11827; anaerobic culture 35+/-2°C, 48 hours; read with naked eyes
Procedure: (§7) On the day of the experiment, the compound in the flask was dissolved in 100% DMSO until the concentration of mother liquor was 0.4 mg/mL. If the mother liquor was not used on the same day, it was stored at −80° C. for future use. The compound mother liquor and standard antibiotics were subjected to 2-fold gradient dilution with corresponding solvents on a 96-microwell plate (V-bottom) to obtain 100× working solutions (Well 1 to Well 7) in sequence. Among them, the concentrations of the compound were 400 μg/mL, 200 μg/mL, 100 μg/mL, 50 μg/mL, 25 μg/mL, 12.5 μg/mL, 6.25 μg/mL, and 3.125 μg/mL. 100% DMSO was used as growth control (Well 8). As such, the compound motherplate was obtained. Two days before the experiment, anaerobic bacteria (Propionibacterium acnes) stored in a cryogenic tube at −80° C. were scribed on an MBA (Brucella Agar+5% (v/v) defibrillated sheep blood+[…] Hemin+1 μg/mLVitamin K1) plate. The anaerobic bacteria were placed in a 35+/−2° C. anaerobic incubator for 42-48 hours of cultivation. On the day of the experiment, the plate was taken out, clones were picked from the plate and suspended in physiological saline. Then, the turbidity of the bacterial suspension (containing 1.0-2.0×10^8 CFU/mL) was adjusted to OD600=0.2 by a turbidity meter. Then, the adjusted bacterial suspension was diluted to an appropriate concentration with the assay culture medium: about 5×10^5 CFU/mL for aerobic bacteria, and about 1×10^6 CFU/mL for anaerobic bacteria. As such, the inoculating solution was obtained. […] Therefore, the final assay concentrations of the compound were 4 μg/mL, 2 μg/mL, 1 μg/mL, 0.5 μg/mL, 0.25 μg/mL, 0.125 μg/mL, 0.06 μg/mL and 0.03 μg/mL. The total volume of each well on the assay plate was 200 μL: containing 1% DMSO, about 5×10^5 CFU/mL of aerobic bacteria and about 1×10^6 CFU/mL of anaerobic bacteria. All assay plates for aerobic bacteria were aerobically cultured at 35+/−2° C. for 16 to 20 hours, and all assay plates for anaerobic bacteria were anaerobically cultured in an anaerobic incubator at 35+/−2° C. for 48 hours. Note: for anaerobic bacteria, both the preparation of bacterial solution in step 2 and the inoculation of bacterial solution in step 3 were operated in an anaerobic workstation.

[3] = system: Propionibacterium acnes ATCC 6919; assay: Minimum inhibitory concentration (MIC) assay, Propionibacterium acnes ATCC 6919; details: Cutibacterium acnes, ATCC6919; anaerobic culture 35+/-2°C, 48 hours; read with naked eyes
Procedure: as §7

[4] = system: Staphylococcus epidermidis ATCC 35983; assay: Minimum inhibitory concentration (MIC) assay, Staphylococcus epidermidis ATCC 35983; details: ATCC35983, aerobic culture 35+/-2°C, 16 to 20 hours, read with naked eyes
Procedure: as §1, §2, §3, §4, §5, §6

[5] = system: Staphylococcus epidermidis ATCC 12228; assay: Minimum inhibitory concentration (MIC) assay, Staphylococcus epidermidis ATCC 12228; details: ATCC12228, aerobic culture 35+/-2°C, 16 to 20 hours, read with naked eyes
Procedure: as §1, §2, §3, §4, §5, §6

Compound	MIC [1] [µg/mL]	MIC [2] [µg/mL]	MIC [3] [µg/mL]	MIC [4] [µg/mL]	MIC [5] [µg/mL]
CCCNc1cc2c(cn1)-c1ccc3c(=O)c(C(=O)O)cn(C4CC4)c3c1COC2 [Trifluoroacetate of Compound 13]	0.06	0.25	0.125	0.06	0.06
Nc1ncc2c(n1)COCc1c-2ccc2c(=O)c(C(=O)O)cn(C3CC3)c12 [Trifluoroacetate of Compound 9]	0.125	0.25	0.25	0.06	0.03
Cc1cc2c(cn1)-c1ccc3c(=O)c(C(=O)O)cn(C4CC4)c3c1COC2 [Sodium salt of Compound 10]	≤ 0.03	0.125	0.125	0.06	0.06
CN(CC(F)F)c1cc2c(cn1)-c1ccc3c(=O)c(C(=O)O)cn(C4CC4)c3c1COC2 [Trifluoroacetate of Compound 23]	≤ 0.06	0.25	0.12	0.12	0.12
CNc1cc2c(cn1)-c1ccc3c(=O)c(C(=O)O)cn(C4CC4)c3c1C=CC2 [Compound 4]	0.06 (≈ 0.161 µM)	0.5 (≈ 1.34 µM)	0.5 (≈ 1.34 µM)	0.125 (≈ 0.335 µM)	0.125 (≈ 0.335 µM)
CNc1cc2c(cn1)-c1ccc3c(=O)c(C(=O)O)cn(C4CC4)c3c1CCC2 [Trifluoroacetate of Compound 20]	0.125	2	1	0.125	0.125
O=C(O)c1cn(C2CC2)c2c3c(ccc2c1=O)-c1cnc(NC[C@H](O)CO)cc1COC3 [Trifluoroacetate of Compound 22]	0.12	0.25	0.25	0.25	0.25
O=C(O)c1cn(C2CC2)c2c3c(ccc2c1=O)-c1cnccc1COC3 [Trifluoroacetate of Compound 11]	0.125	0.25	0.5	0.06	0.03
N=C(N)NOCCOCCNc1cc2c(cn1)-c1ccc3c(=O)c(C(=O)O)cn(C4CC4)c3c1COC2 [Hydrochloride of Compound 29]	1	1	2	2	2
O=C(O)c1cn(C2CC2)c2c3c(ccc2c1=O)-c1cnc(NCc2ccccc2)cc1COC3 [Trifluoroacetate of Compound 15]	0.06	0.5	0.125	0.06	0.06
COc1cc2c(cn1)-c1ccc3c(=O)c(C(=O)O)cn(C4CC4)c3c1COC2 [Compound 5]	0.06 (≈ 0.159 µM)	0.06 (≈ 0.159 µM)	0.06 (≈ 0.159 µM)	0.06 (≈ 0.159 µM)	0.06 (≈ 0.159 µM)
CNc1cc2c(cn1)-c1ccc3c(=O)c(C(=O)O)cn(C4CC4)c3c1COC2 [Trifluoroacetate of Compound 2]	0.06	0.25	0.125	0.06	0.06
O=C(O)c1cn(C2CC2)c2c3c(ccc2c1=O)-c1cc2nc[nH]c2cc1COC3 [Compound 3]	0.06 (≈ 0.155 µM)	0.06 (≈ 0.155 µM)	0.06 (≈ 0.155 µM)	0.06 (≈ 0.155 µM)	0.06 (≈ 0.155 µM)
CNc1ccc2c(n1)COCc1c-2ccc2c(=O)c(C(=O)O)cn(C3CC3)c12 [Hydrochloride of Compound 1]	0.5	0.25	0.25	0.25	0.5
NCCNc1cc2c(cn1)-c1ccc3c(=O)c(C(=O)O)cn(C4CC4)c3c1COC2 [Trifluoroacetate of Compound 19]	1	2	2	1	2
CCNc1cc2c(cn1)-c1ccc3c(=O)c(C(=O)O)cn(C4CC4)c3c1COC2 [Trifluoroacetate of Compound 14]	0.03	0.125	0.06	0.06	0.06
O=C(O)c1cn(C2CC2)c2c3c(ccc2c1=O)-c1cnc(NCC2CCC2)cc1COC3 [Trifluoroacetate of Compound 16]	0.06	0.5	0.5	0.06	0.06
Nc1cc2c(cn1)-c1ccc3c(=O)c(C(=O)O)cn(C4CC4)c3c1COC2 [Trifluoroacetate of Compound 7]	0.03	0.25	0.125	0.03	0.06
O=C(O)c1cn(C2CC2)c2c3c(ccc2c1=O)-c1c[nH]c(=O)cc1COC3 [Compound 21]	2 (≈ 5.49 µM)	1 (≈ 2.74 µM)	0.5 (≈ 1.37 µM)	1 (≈ 2.74 µM)	1 (≈ 2.74 µM)
CC1(C)OC[C@H](CNc2cc3c(cn2)-c2ccc4c(=O)c(C(=O)O)cn(C5CC5)c4c2COC3)O1 [Compound 26]	0.25 (≈ 0.524 µM)	0.5 (≈ 1.05 µM)	0.5 (≈ 1.05 µM)	0.25 (≈ 0.524 µM)	0.25 (≈ 0.524 µM)
N=C(N)Nc1cc2c(cn1)-c1ccc3c(=O)c(C(=O)O)cn(C4CC4)c3c1COC2 [Trifluoroacetate of Compound 27]	0.5	1	1	0.5	0.5
O=C(O)c1cn(C2CC2)c2c3c(ccc2c1=O)-c1cnc(NCCO)cc1COC3 [Trifluoroacetate of Compound 12]	0.06	0.125	0.06	0.06	0.06
CN(C[C@H]1COC(C)(C)O1)c1cc2c(cn1)-c1ccc3c(=O)c(C(=O)O)cn(C4CC4)c3c1COC2 [Compound 25]	0.25 (≈ 0.509 µM)	0.25 (≈ 0.509 µM)	0.25 (≈ 0.509 µM)	0.5 (≈ 1.02 µM)	0.25 (≈ 0.509 µM)
